Reference: ChEMBL document CHEMBL1147583, “Respiratory syncytial virus inhibitors. Part 2: Benzimidazol-2-one derivatives” (Bioorg Med Chem Lett, 2004)

Assays:
HEp-2 [1] = experiment: Antiviral activity against respiratory syncytial virus in HEp-2 human […] epithelial carcinoma cell line; type: functional, cell-based
HEp-2 [2] = experiment: Cytotoxic activity against uninfected HEp-2 human […] epithelial carcinoma cell line; type: functional
[3] = Therapeutic index expressed as the ratio between CC50 and EC50; type: cell-based; details: human, HEp-2 cells; read-out: Therapeutic index

| Compound | EC50 (HEp-2 [1]) [nM] | CC50 (HEp-2 [2]) [nM] | selectivity ratio [3] |
| --- | --- | --- | --- |
| CC(C)CCn1c(Cn2c(=O)n(Cc3cc(I)c(O)c(I)c3)c3ccccc32)nc2ccccc21 | 686 | > 144000 | > 209 |
| CC(C)CCn1c(Cn2c(=O)n(C(N)=O)c3ccccc32)nc2ccccc21 | 50 | 134000 | 2670 |
| N#CCCn1c(Cn2c(=O)n(-c3ccccc3)c3ccccc32)nc2ccccc21 | 5 | 87000 | 17400 |
| CC(C)CCn1c(Cn2c(=O)n(S(=O)(=O)N(C)C)c3ccccc32)nc2ccccc21 | 62 | 27100 | 437 |
| CC(C)CCn1c(Cn2c(=O)n(CCCC#N)c3ccccc32)nc2ccccc21 | 40 | 59600 | 1490 |
| C=CCn1c(=O)n(Cc2nc3ccccc3n2CCC(C)C)c2ccccc21 | 16 | 12800 | 800 |
| CC(C)CCn1c(Cn2c(=O)n(Cc3ccc(S(C)(=O)=O)cc3)c3ccccc32)nc2ccccc21 | 9 | 7500 | 833 |
| CCNC(=O)n1c(=O)n(Cc2nc3ccccc3n2CCC(C)C)c2ccccc21 | 52 | 18700 | 359 |
| CC1(CCn2c(Cn3c(=O)n(Cc4cc(I)c(O)c(I)c4)c4ccccc43)nc3ccccc32)N=N1 | 38 | 27100 | 713 |
| C=C(C)n1c(=O)n(Cc2nc3ccccc3n2CCCCC#N)c2ccccc21 | 27 | 193000 | 7140 |
| C=C(C)n1c(=O)n(Cc2nc3ccccc3n2CCC(C)C)c2ccccc21 | 4 | 24700 | 6180 |
| CC(C)CCn1c(Cn2c(O)nc3ccccc32)nc2ccccc21 | 57 | 61100 | 1070 |
| CC(C)CCn1c(Cn2c(=O)n(C(=O)NCc3ccccc3)c3ccccc32)nc2ccccc21 | 86 | 6440 | 74 |
| CCn1c(=O)n(Cc2nc3ccccc3n2CCC(C)C)c2ccccc21 | 11 | 18600 | 1690 |
| CC(C)CCn1c(Cn2c(=O)n(Cc3ccc(S(=O)(=O)N(C)C)cc3)c3ccccc32)nc2ccccc21 | 4 | > 153000 | > 38200 |
| OCCCCn1c(Cn2c(O)nc3ccccc32)nc2ccccc21 | 173 | > 168000 | > 971 |
| C=C(C)n1c(=O)n(Cc2nc3ccccc3[nH]2)c2ccccc21 | 750 | 28400 | 38 |
| CC(C)CCn1c(Cn2c(=O)n(Cc3ccc(O)cc3)c3ccccc32)nc2ccccc21 | 18 | 59900 | 3330 |
| CCn1c(=O)n(Cc2nc3ccccc3n2CC(O)c2ccccc2)c2ccccc21 (stereo not given) | 37 | > 241000 | > 6500 |
| CC1(CCn2c(Cn3c(=O)n(Cc4ccc(O)cc4)c4ccccc43)nc3ccccc32)N=N1 | 4 | > 220000 | > 28000 |
| CCn1c(=O)n(Cc2nc3ccccc3n2CCCO)c2ccccc21 | 10 | 179000 | 17900 |
| C=C(C)n1c(=O)n(Cc2nc3ccccc3n2CCC(C)=O)c2ccccc21 | 5 | 245000 | 48900 |
| C=C(C)n1c(=O)n(Cc2nc3ccccc3n2CCCCO)c2ccccc21 | 4 | 171000 | 42700 |
| CC(C)n1c(=O)n(Cc2nc3ccccc3n2CCC#N)c2ccccc21 | 8 | 73500 | 9190 |
| CCn1c(=O)n(Cc2nc3ccccc3n2CC(=O)c2ccccc2)c2ccccc21 | 112 | 27100 | 241 |
| CS(=O)(=O)CCCn1c(Cn2c(O)nc3ccccc32)nc2ccccc21 | 1490 | 216000 | 144 |
| CC(O)CCn1c(Cn2c(O)nc3ccccc32)nc2ccccc21 (stereo not given) | 416 | > 262000 | > 629 |

| Compound | EC50 (HEp-2 [1]) [nM] | CC50 (HEp-2 [2]) [nM] | selectivity ratio [3] |
| --- | --- | --- | --- |
| CC(C)CCn1c(Cn2c(=O)n(C(=O)Nc3ccccc3)c3ccccc32)nc2ccccc21 | 41 | 21600 | 526 |
| C=C(C)n1c(=O)n(Cc2nc3ccccc3n2CCC#N)c2ccccc21 | 15 | 79600 | 5310 |
| CC(C)CCn1c(Cn2c(=O)n(Cc3ccc(C#N)cc3)c3ccccc32)nc2ccccc21 | 12 | 5590 | 465 |
| C=C(C)n1c(=O)n(Cc2nc3ccccc3n2CCCS(C)(=O)=O)c2ccccc21 | 30 | 123000 | 4110 |
| C=C(C)n1c(=O)n(Cc2nc3ccccc3n2CCCC#N)c2ccccc21 | 5 |  |  |
| CC(C)n1c(=O)n(Cc2nc3ccccc3n2CCCCCCC#N)c2ccccc21 | 5 | > 189000 | > 37800 |
| CC(C)CCn1c(Cn2c(=O)n(S(C)(=O)=O)c3ccccc32)nc2ccccc21 | 7 | 16300 | 2330 |
| CCOC(=O)n1c(=O)n(Cc2nc3ccccc3n2CCC(C)C)c2ccccc21 | 298 | 57700 | 193 |
| CC(C)CCn1c(Cn2c(=O)n(Cc3ccc(C(=O)N(C)C)cc3)c3ccccc32)nc2ccccc21 | 21 | 26600 | 1270 |
| CS(=O)(=O)CCCn1c(Cn2c(=O)n(CCCCC#N)c3ccccc32)nc2ccccc21 | 71 | > 214000 | > 3020 |
| C=C(C)n1c(=O)n(Cc2nc3ccccc3n2CCC(C)O)c2ccccc21 (stereo not given) | 28 | 172000 | 6130 |
| CC(C)n1c(=O)n(Cc2nc3ccccc3n2CCCCO)c2ccccc21 | 11 | 68300 | 6210 |
| N#Cc1ccc(Cn2c(=O)n(Cc3nc4ccccc4n3CCCCO)c3ccccc32)cc1 | 53 | 39200 | 739 |
| C=C(C)n1c(=O)n(Cc2nc3ccccc3n2CCCCCC#N)c2ccccc21 | 13 | 12300 | 946 |
| N#CCCCCn1c(=O)n(Cc2nc3ccccc3n2CCCC#N)c2ccccc21 | 25 | > 242000 | > 9090 |
| CC(C)CCn1c(Cn2c(=O)n(CCCCCC#N)c3ccccc32)nc2ccccc21 | 25 | 13400 | 536 |
| C=C(C)n1c(=O)n(Cc2nc3ccccc3n2CCCCCCO)c2ccccc21 | 114 | > 247000 | > 2170 |
| CC(C)CCn1c(Cn2c(=O)n(CCCCC#N)c3ccccc32)nc2ccccc21 | 35 | 15000 | 428 |
| N#CCCn1c(Cn2c(O)nc3ccccc32)nc2ccccc21 | 99 | > 310000 | > 3130 |
| CS(=O)(=O)CCCn1c(Cn2c(=O)n(CCCCO)c3ccccc32)nc2ccccc21 | 92 | > 229000 | > 2490 |
| C=C(C)n1c(=O)n(Cc2nc3ccccc3n2CCCCCCC#N)c2ccccc21 | 6 | 36000 | > 6000 |
| CCn1c(=O)n(Cc2nc3ccccc3n2CCCCO)c2ccccc21 | 14 | 154000 | 11000 |
| CCn1c(=O)n(Cc2nc3ccccc3n2CCO)c2ccccc21 | 229 | 64100 | 279 |
| CC(=O)n1c(=O)n(Cc2nc3ccccc3n2CCC(C)C)c2ccccc21 | 710 | 116000 | 162 |
| CC(=O)CCn1c(Cn2c(O)nc3ccccc32)nc2ccccc21 | 191 | 299000 | 1560 |
| CC(C)CCn1c(Cn2c(=O)n(S(=O)(=O)C(C)C)c3ccccc32)nc2ccccc21 | 65 | 16900 | 260 |
| CC(C)CCn1c(Cn2c(=O)n(CC#N)c3ccccc32)nc2ccccc21 | 28 | 46800 | 1670 |
